The numbers were not newly measured in patent publication US20220168203A1, “METHOD FOR PREPARING HAIR TREATMENTS AGENTS WITH ORGANIC C1-C6 ALKOXY-SILANES” (Henkel AG & Co. KGaA, priority 2019, published 2022), which cites them from elsewhere.

The conditions of this data set: 25° C.

With `O=S(=O)(O)c1ccc(N=Nc2c(O)ccc3ccccc23)cc1` [Acid Orange 7, 4-[(2-hydroxy-1-naphthyl)azo]benzene sulphonate], the solubility in water entry was “more than 7 g/L”.
For `O=[N+]([O-])c1cc([N+](=O)[O-])c2ccc(S(=O)(=O)O)cc2c1O` [Acid Yellow 9, 8-hydroxy-5,7-dinitro-2-naphthalenesulfonic acid], the solubility in water result is listed as “above 40 g/L”.
`O=C(O)C1=NN(c2ccc(S(=O)(=O)O)cc2)C(=O)C1N=Nc1ccc(S(=O)(=O)O)cc1` (stereo not shown) [Acid Yellow 23, 4,5-dihydro-5-oxo-1-(4-sulfophenyl)-4-((4-sulfophenyl)azo)-1H-pyrazole-3-carboxylic acid]: the “solubility in water (in words)” value is “highly soluble”.
As for Acid Yellow 3, the solubility in water was 20 mg/mL.
